Assays:
[1] = test system: J774A.1, RAW 264.7 and primary mouse peritoneal macrophages; test: Transwell migration assay of macrophages; assay type: cell-based; conditions: J774A.1 and RAW 264.7, 3 h
Description: J774A.1 cells (#TIB-67; ATCC, Middlesex, UK) were cultured in DMEM supplemented with 10% FBS, 100 U/ml penicillin, 100 μg/ml streptomycin, and 0.25 μg amphotericin B. Cells were seeded in T75 tissue-culture flasks and maintained at 37° C. and 5% CO2. RAW 264.7 cells (#TIB-71; ATCC) were maintained in DMEM containing 10% FBS.
Resident peritoneal cells were harvested from adult C57BL/6 mice (6-8 weeks old) by injection of 10 ml of PBS using a 21G needle into the peritoneal cavity and harvesting the cell suspension, as described previously (Rosas M, Davies L C, Giles P J, Liao C T, Kharfan B, Stone T C, et aL. The transcription factor Gata6 links tissue macrophage phenotype and proliferative renewal. Science 2014; 344(6184): 645-8). Peritoneal cells were then centrifuged at 100×g for 10 min and the cell pellet resuspended in DMEM/F12 medium. Cell were incubated at 37° C., for 2 h and non-adherent cells were removed by gentle washing. Cells were expanded in DMEM/F12 medium containing 10% FBS. For migration assays, cells were grown in RPMI containing 0.02% BSA for 24 h to obtain quiescent cells prior to using them in Transwell migration assays as described below.
Migration assays were performed with J774A.1, RAW 264.7 and primary mouse peritoneal macrophages in 6.5 mm Transwell plates (ThermoFisher) with 8 μm pore inserts, as described previously (Green et al., 2012). Briefly, inserts were coated with rat tail type I collagen and 1×10^5 cells (J774A.1, RAW 264.7 or primary mouse macrophages) were resuspended in chemotaxis buffer (RMPI 1640 plus 0.02% BSA, (termed RPMI from herein)) and added to the upper chamber and incubated with migration medium, with or without known chemotactic factors MCP-1 (100 ng/ml) and PMA (100 nM), or AZD1236, GM6001, SD2590 and MMP-9 Inhibitor I (all used at 1, 10, 100, 1000 ng/ml) added to the lower chamber. Cells were allowed to migrate through the insert membrane for 3 h at 37° C., before washing inserts with PBS. Non-migrating cells remaining on the upper surface were removed with a cotton swab whilst the migrated cells on the insert were fixed, stained with Diff-Quick (#26096, Electron Microscopy Science, Hatfield, UK), and mounted on glass slides. Migration was measured visually by counting using a light microscope at 40× magnification. The mean number of cells in 10 random fields were calculated for each treatment by an experimenter masked to the treatment conditions. A migration index was calculated by dividing the number of cells that migrated in response to the chemokine by the number of cells that migrated randomly (RPMI medium) with a reference index>1, indicating chemotaxis.

[2] = test system: IL-1β, TNF-α and IL-6; test: Proinflammatory pain markers after CC SCI in mice; assay type: in vivo, mouse; conditions: oral gavage immediately after injury
Description: CC SCI was administered at the T7-T8 vertebral level after exposure of T6-T9 by laminectomy. The aneurysm clip applicator was oriented in a bilateral direction and an aneurysm clip with a closing force of 24 g was applied extradurally for 60 s, as described previously (A. S. Rivlin, C. H. Tator, Effect of duration of acute spinal cord compression in a new acute cord injury model in the rat. Surg Neurol 10, 38-43 (1978):E. Esposito, I. Paterniti, E. Mazzon, T. Genovese, M. Galuppo, R. Meli, P. Bramanti, S. Cuzzocrea, MK801 attenuates secondary injury in a mouse experimental compression model of spinal cord trauma. BMC Neurosci 12, 31 (2011)).
The urinary bladders were manually emptied twice daily until bladder function was regained. Adult male C57BL6 mice (25-30 g) (Charles River, Margate, UK) were randomly allocated to either: (1), Sham (control; laminectomy but no CC SCI); (2), CC SCI+vehicle; (3), CC SCI+200 mg/kg AZD1236 (oral); (4), CC SCI+5 mg/kg AZD1236 (it). All experiments were performed with n=6 mice/group and repeated on 3 independent occasions (total=18 mice/group/test).
The lesion site+5 mm either side (DC and CC SCI, n=6 mice/rats/group, 2 independent repeats (total n=12 mice/rats/group)) was dissected and rapidly frozen in liquid N2 and stored at −80° C. until required. […] The levels of mRNA of MMP-9, MMP-12, IL-1β, TNF-α and IL-6 were determined using pre-validated mouse primer sequences from complimentary DNA prepared from extracted mRNA and qRT-PCR was performed using a LightCycler PCR machine (Roche, Burgess Hill, UK) (M. L. Read, S. Mir, R. Spice, R. J. Seabright, E. L. Suggate, Z. Ahmed, M. Berry, A. Logan, Profiling RNA interference (RNAi)-mediated toxicity in neural cultures for effective short interfering RNA design. J Gene Med 11, 523-534 (2009)). […] Fold changes were computed using the ΔΔCt method (M. L. Read, S. Mir, R. Spice, R. J. Seabright, E. L. Suggate, Z. Ahmed, M. Berry, A. Logan, Profiling RNA interference (RNAi)-mediated toxicity in neural cultures for effective short interfering RNA design. J Gene Med 11, 523-534 (2009).

[3] = test system: mice with DC crush injury; test: Spinal cord water content (oedema) after DC crush injury in mice; assay type: in vivo, mouse; conditions: 3 days after DC injury; doses and routes of Table 1; vs DC+vehicle
Description: For oral delivery of AZD1236, n=6 adult male C57BL6 mice/group (Charles River, Margate, UK) were randomly allocated to either: (1), Sham (control; partial laminectomy but no DC crush injury); (2), DC crush injury+vehicle (partial laminectomy followed by DC crush injury and injection of vehicle); (3), DC crush injury+100 mg/kg AZD1236; (4), DC crush injury+200 mg/kg AZD1236; and (5), DC crush injury+300 mg/kg AZD1236. For intrathecal (it) delivery of AZD1236, adult male C57BL6 mice (25-30 g) (Charles River, Margate, UK) were randomly allocated to either: (1), Sham (control; partial laminectomy but no DC crush injury); (2), DC crush injury+vehicle (partial laminectomy followed by DC crush injury and injection of vehicle); (3), DC crush injury+2.5 mg/kg AZD1236; (4), DC crush injury+5 mg/kg AZD1236; and (5), DC crush injury+10 mg/kg AZD1236. For intrathecal delivery an indwelling atlanto-occipital intrathecal catheter was inserted into the intrathecal space, as described previously (F. A. Oladosu, B. P. Ciszek, S. C. O'Buckley, A. G. Nackley, Novel intrathecal and subcutaneous catheter delivery systems in the mouse. J Neurosci Methods 264, 119-128 (2016)). Briefly, with mice in the sternal recumbency a small incision was made at the nape of the neck followed by detachment of the muscles on either side of the external occipital crest to expose the A-O membrane. The membrane was incised and a 6 cm Alzet mouse intrathecal catheter (Alzet, Cupertino, Calif., USA) and polyurethane segments were gently guided 2.5 cm into the intrathecal space. The catheter was secured using 4-0 silk sutures (Oasis Medical, IL) and the exposed end of the catheter was sealed off with a stainless-steel plug and affixed to the upper back. Animals were injected immediately with vehicle or AZD1236 followed by a 10 μl PBS catheter flush. Injections were repeated every twice daily for the first 3 days after injury and drugs and vehicle reagents were delivered over 1 min time period using a Hamilton microlitre syringe (Hamilton Co, USA). Where specified intact animals with no surgical procedures were also used. All lesions were administered under 5% isofluorane induced inhalation anaesthesia, with 1.51/min O2. Pre- and post-injury analgesia was also provided.
DC crush injury was administered bilaterally at the T8 vertebral level as described previously (S. Surey, M. Berry, A. Logan, R. Bicknell, Z. Ahmed, Differential cavitation, angiogenesis and wound-healing responses in injured mouse and rat spinal cords. Neuroscience 275, 62-80 (2014); M. L. Read, S. Mir, R. Spice, R. J. Seabright, E. L. Suggate, Z. Ahmed, M. Berry, A. Logan, Profiling RNA interference (RNAi)-mediated toxicity in neural cultures for effective short interfering RNA design. J Gene Med 11, 523-534 (2009)). Briefly, calibrated watchmaker's forceps were separated by 0.5 mm and inserted through the dorsal cord meninges to a depth of 0.45 mm in mice and separated by 1 mm and inserted through the dorsal cord meninges to a depth of 1.0 mm in rats, and the DC were crushed for 3 seconds. AZD1236 or vehicle was administered twice daily by oral gavage or intrathecally, either immediately for the first 3 days or 24 hours after injury and treating twice daily until day 4 (i.e. 3 days of AZD1236 dosing). All experiments were performed with n=6 mice/group and repeated on at least 2-3 independent occasions (total=12-18 animals/group/test).
The lesion site+3 mm either side for mice and the lesion site+5 mm either side for the rat DC model were dissected out and the water content of the spinal cord (as a measure of oedema) was determined at 3 days after DC and CC SCI, as described previously (S. Li, C. H. Tator, Effects of MK801 on evoked potentials, spinal cord blood flow and cord edema in acute spinal cord injury in rats. Spinal Cord 37, 820-832 (1999)). Spinal cords containing the lesion site were weighed on aluminium foil, dried at 105° C. for 24 hr, and re-weighed. […]

[4] = test system: rats with DC crush injury; test: Spinal cord water content after DC injury in rats; assay type: in vivo; conditions: rat DC injury, oral, 3 days
Description: DC crush injury was administered bilaterally at the T8 vertebral level as described previously (S. Surey, M. Berry, A. Logan, R. Bicknell, Z. Ahmed, Differential cavitation, angiogenesis and wound-healing responses in injured mouse and rat spinal cords. Neuroscience 275, 62-80 (2014); M. L. Read, S. Mir, R. Spice, R. J. Seabright, E. L. Suggate, Z. Ahmed, M. Berry, A. Logan, Profiling RNA interference (RNAi)-mediated toxicity in neural cultures for effective short interfering RNA design. J Gene Med 11, 523-534 (2009)). […]
The efficacy of oral AZD3342 in the DC injury model in adult Sprague-Dawley rat was also assessed. […]
The lesion site+3 mm either side for mice and the lesion site+5 mm either side for the rat DC model were dissected out and the water content of the spinal cord (as a measure of oedema) was determined at 3 days after DC and CC SCI, as described previously (S. Li, C. H. Tator, Effects of MK801 on evoked potentials, spinal cord blood flow and cord edema in acute spinal cord injury in rats. Spinal Cord 37, 820-832 (1999)). […] The percent water content was calculated as: water content (%)=[(wet weight-dry weight)/wet weight]×100%.

[5] = test system: mice with DC crush injury; test: CSF biomarkers of SCI (S100β, NSE, GFAP, pNF-H, NF-L); assay type: in vivo, mouse; conditions: 3 d after injury
[6] = test system: IL-1β, TNF-α and IL-6; test: Proinflammatory pain cytokines after DC injury in rats; assay type: in vivo; conditions: rat DC injury, oral
Description: The efficacy of oral AZD3342 in the DC injury model in adult Sprague-Dawley rat was also assessed. Animals were divided into 6 groups: (1), Sham (control); (2), DC crush injury+Vehicle; (3), DC crush injury+15 mg/kg AZD3342; (4), DC crush injury+75 mg/kg […]; (5), DC crush injury+375 mg/kg AZD3342; and (6), DC crush injury+Melatonin. Animals were dosed twice daily with oral AZD3342 or vehicle with the experimenters masked to the treatment conditions. These experiments were performed with n=6 rats/group and repeated on 2-3 independent occasions (total n=12-18 rats/group/test).
The lesion site+5 mm either side (DC and CC SCI, n=6 mice/rats/group, 2 independent repeats (total n=12 mice/rats/group)) was dissected and rapidly frozen in liquid N2 and stored at −80° C. until required. […] The levels of mRNA of MMP-9, MMP-12, IL-1β, TNF-α and IL-6 were determined using pre-validated mouse primer sequences from complimentary DNA prepared from extracted mRNA and qRT-PCR was performed using a LightCycler PCR machine (Roche, Burgess Hill, UK) (M. L. Read, S. Mir, R. Spice, R. J. Seabright, E. L. Suggate, Z. Ahmed, M. Berry, A. Logan, Profiling RNA interference (RNAi)-mediated toxicity in neural cultures for effective short interfering RNA design. J Gene Med 11, 523-534 (2009)). […]

[7] = test system: mice with DC crush injury; test: Spinal cord water content (oedema) after DC crush injury in mice; assay type: in vivo, mouse; conditions: IP, twice daily

## CCCCCCCCCCCCCC(=O)O[C@@H]1[C@@H](C)[C@@]2(O)[C@@H](C=C(CO)C[C@]3(O)C(=O)C(C)=C[C@@H]23)[C@@H]2C(C)(C)[C@]12OC(C)=O [PMA]
[1]
  macrophage migration (migration index, chemotaxis): stimulated significant chemotaxis

## CC(C)C[C@H](CN)CC(=O)O [pregabalin]
[2]
  proinflammatory pain markers after CC injury, comparison with pain medications (FIG. 7): much less effective

## Nc1nc2ccc(OC(F)(F)F)cc2s1 [Riluzole, reference compound]
[3]
  spinal cord water content, comparison of MMP inhibitors (FIG. 4): significantly reduced spinal cord water content

## COc1ccc(Cl)cc1C(=O)NCCc1ccc(S(=O)(=O)NC(=O)NC2CCCCC2)cc1 [Glibenclamide, reference compound]
[3]
  spinal cord water content, comparison of MMP inhibitors (FIG. 4): significantly reduced spinal cord water content

## COc1ccc2[nH]cc(CCNC(C)=O)c2c1 [melatonin, reference compound]
[3]
  spinal cord water content, comparison of MMP inhibitors (FIG. 4): significantly reduced spinal cord water content
[4]
  SCI-induced edema (spinal cord water content): marginal effect
[5]
  levels of S100β, NSE, GFAP, pNF-H and NF-L in CSF: marginally reduced
[6]
  expression of proinflammatory pain cytokines: small effect

## MCP-1: known chemotactic factor, positive control in migration assay
[1]
  macrophage migration (migration index, chemotaxis): stimulated significant chemotaxis

## NCC1(CC(=O)O)CCCCC1 [gabapentin]
[2]
  proinflammatory pain markers after CC injury, comparison with pain medications (FIG. 7): much less effective

## COC(=O)Nc1ccc2oc3cc(S(=O)(=O)N[C@@H](C(=O)O)C(C)C)ccc3c2c1 [MMP408]
[7]
  SCI-induced oedema with tool inhibitors singly or in combination (FIG. 3D): suboptimal therapeutic benefits
